Measurements from patent EP4048709B1, “A DRUG FOR THE TREATMENT OF CERVICAL CANCER” (Yildiz Teknik Universitesi, priority 2020, dated 2022).

Legend:
[1] = singlet oxygen quantum yield (DPBF quencher, ZnPc standard); assay type: physicochemical; details: irradiated in the Q band area, room conditions, Figure 7
Description: Singlet oxygen quantum yields of the inventive Compound 2 were calculated by means of Zinc (II) phthalocyanine (ZnPc) standard and 1,3-diphenylisobenzofuran (DPBF) singlet oxygen quencher at room conditions via using Equation-2 below: ΦΔ = ΦΔ^Std .(RDPBF .Iabs^Std)/(RDPBF^Std .Iabs) [formula] wherein, • Φ^StdΔ; the singlet oxygen yield (ZnPc ΦΔ = 0,53 in THF) • ΦΔ; for example, singlet oxygen yield, • RDPBF; the degradation rate of DPBF in the presence of the sample, • ROPBFstd; the degradation rate of DPBF in the presence of the standard, • Iabs; the light absorption rate of sample and standard, • IabStd; the light absorption rate of the standard.
DPBF with a concentration of […] was used in order to prevent chain reactions caused by the presence of singlet oxygen. Solutions of a sensitizer containing DPBF (absorbance at irradiation wavelength = 2.0) were prepared in a dark environment and irradiated in the Q band area by means of using the setup described above. This yield was found as 49%, according to Figure 7. […]

[2] = photodegradation quantum yield under irradiation; assay type: physicochemical
Description: DPBF with a concentration of […] was used in order to prevent chain reactions caused by the presence of singlet oxygen. Solutions of a sensitizer containing DPBF (absorbance at irradiation wavelength = 2.0) were prepared in a dark environment and irradiated in the Q band area by means of using the setup described above. This yield was found as 49%, according to Figure 7. The maximum absorbance of the Q band in the solutions of all complexes was set to 1.0 in the solvent used in order to determine the photodegradation quantum yield (Φd), and the decrease in the intensity of the Q band under irradiation with time is observed by means of using the following Equation-3: Φd = ((C0−Ct).V.NA)/(Iabs .S.t) [formula] wherein, • C0 (mol.dm^-3); concentration of Compound 2 before irradiation, • Ct (mol.dm^-3); concentration of Compound 2 […]; reaction volume (3.0 cm^3), • S; irradiated cell area, • t; irradiation time, • NA; Avogadro's number, • Iabs; the overlapping integration of the radiation source intensity. […] It has been observed that Compound 2 is active in destroying cancer cells, and as such may have a potential for the treatment of cancer with PDT when considering the PDT characteristic measurement results described above.

HeLa cells [3] = assay: proliferation rate analysis (MTT, mitochondrial dehydrogenase enzyme activity); assay type: cell-based, human; details: for absorbance values / viability of cells: 24 hours; for absorbance values: MTT, 570 nm with reference to 690 nm, control group 590×10^-3; for viability of cells: control group considered 100%
Description: Different concentrations of In(III)Pc complex were applied to cultured human cervical cancer originated HeLa cells for 24 hours in order to determine the changes in mitochondrial dehydrogenase enzyme activity of cancer cells by means of the In(III)Pc complex obtained. For proliferation rate analysis, routinely cultured HeLa cells were cultivated in culture plates with 96 wells such that the growth medium is 3×10^4 cell/ml per well. In(III)Pc complex prepared at 50 µM, 100 µM, and 150 µM concentrations were applied to the cells after waiting for the cells to adhere and spread. The growth medium in the wells was withdrawn and 40 µl of 3-(4,5-dimethylthiazol-2-yl)-2,5-diphenyltetrazolium bromide (MTT) (5mg/ml) was added at the end of the experiment periods. 160 µl of dimethyl sulfoxide (DMSO) was added to the wells with MTT and incubated for 1 hour in a shaker incubator after waiting for approximately 4 hours. The absorbance values of the formed experimental groups were carried out by means of the spectrophotometer measurements at 570 nm with reference to the 690 nm wavelength after the formazan crystals formed are dissolved for the 1 hour incubation period. The absorbance values obtained as a result of this application were measured as 590×10^-3 for the control group; 460 ×10^-3 for 50 µM; 280 ×10^-3 for 100 µM, and 170 ×10^-3 for 150 µM.

[4] = solubility in common solvents; assay type: physicochemical; details: chloroform, acetone, THF, ethanol, methanol, DMF or DMSO
Description: The compound obtained by means of the aforementioned method is in the form of a dark green crystal, and the yield thereof is 82 mg (16,14%). The closed formula of Compound 2, which has a melting point >300°C is C89H99InN8O6, and its molecular weight is 1491,61 g/mol. It has been determined that C, 71.66; H, 6.69; […]; N, 7.51; O, 6.44 when the theoretical elemental analysis of the compound was performed. FTIR analysis was conducted in order to shed light upon the structure of said Compound 2 and it is illustrated in Figure 3. […] Table 1. The solubility data of the In(III) Pc compound.

HeLa cells [5] = assay: cell index, real-time cell analysis system; assay type: cell-based, human; details: 72 hours
Description: In the present invention, the cell index parameter was evaluated by means of using a real-time cell analysis system in order to both support the results obtained and to determine the types of cell death, and an E-Plate with 16 wells was used in order to evaluate this parameter. Primarily, 100 µl of growth medium was added to each well of the E-Plate, and background measurements were taken in the cell analyzer device. Then, cultivation is performed in each well such that the 100 µl of growth medium has 6000 cells for HeLa cells. The E-Plates were incubated for 20 minutes in a sterile working cabinet at room temperature, and then placed in the cell analyzer device and incubation was continued at 37°C under ambient conditions of 5% carbon dioxide (CO2) after the cultivation process. The cell analyzer was issued a command to take the measurement every 15 minutes after the cell cultivation to the E-Plates was performed. After approximately 24 hours of cell cultivation, the growth medium in the E-Plates was changed with a growth medium containing different concentrations of In(III)Pc complex at the 1/3rd slice of the proliferation phase of the cells, and measurements were continued at 15-minute intervals for 72 hours. Subsequently, graphics of concentration and time-dependent cell index values were transferred to the computer screen. The antiproliferative effects of the In(III)Pc complex on HeLa cells are observed when the cell index values obtained from the real-time cell analysis system are examined.

HeLa cells [6] = assay: mitotic index (Feulgen method, Giemsa staining); assay type: cell-based, human; details: 100 µM
Description: As a result of applying the optimum concentration of the product(100 µM) on HeLa cells for 0-72 hours, the preparations prepared according to the experimental groups were primarily hydrolyzed with 1 N hydrochloric acid (HCl) at room temperature for 1 minute and then with 1 N HCl at 60°C for 10 minutes in order to determine the effects on the mitotic index values of the cells. After hydrolysis, the Feulgen method was applied to the preparations for 1 hour. Then, these preparations were washed 3 times for 2 minutes with a washing solution, which is specific to the Feulgen method, and air-dried. After the preparations were dried, they were prepared for counting by means of staining with Giemsa dye for 2 minutes. Late prophase, metaphase, anaphase, and telophase stages were counted in order to determine the mitosis index (MI) values of said preparations. The early prophase stage was evaluated together with this stage, as it was morphologically similar to the cells in the interphase group.
Three preparations were evaluated for each experimental group and mitosis index values were determined by means of counting 3000 cells on average from each preparation. The mitosis index values have been decreased from 6% to 3,7% at the 24th hour; from 6,68% to 2,21% at the 48th hour, and from 7,56% to 1,19% at the 72nd hour.

[7] = standard, in THF; cited from earlier work

## 1,8(11), 15(18),22(25)-tetra-(3,5-di-tert-butylphenoxy) indium (III) phthalocyanine [Compound 2]
[1]
  singlet oxygen yield: 49%
[2]; Q band absorbance set to 1.0, irradiation with time
  photodegradation quantum yield (Φd): 2,0017×10^-05
[2]; from the photodegradation quantum yield
  stability under the light: stable under the light
HeLa cells [3]; 50 µM
  absorbance values: 460 ×10^-3
  viability of cells: 78%
HeLa cells [3]; 100 µM
  death of the cells: 52.55%
  absorbance values: 280 ×10^-3
  viability of cells: 47.45%
HeLa cells [3]; 150 µM
  absorbance values: 170 ×10^-3
  viability of cells: 28.81%
HeLa cells [3]; HeLa cells, read-out: IC50 concentration
  IC50: 100 µM
[4]
  solubility: capable of getting dissolved in common solvents
HeLa cells [5]; 50 µM
  effect on cell index values compared with standard curves: does not show a significant effect
HeLa cells [5]; 100 µM (optimum concentration)
  effect on cell index values compared with standard curves: DNA damaging effect
HeLa cells [5]; 100 µM (optimum concentration), listed as In(III)Pc complex
  effect on cell index values compared with standard curves: DNA damage
HeLa cells [5]; 150 µM
  effect on cell index values compared with standard curves: cytoskeletal effect
HeLa cells [6]; 24th hour, decreased from 6%
  mitosis index values: 3,7%
HeLa cells [6]; 48th hour, decreased from 6,68%
  mitosis index values: 2,21%
HeLa cells [6]; 72nd hour, decreased from 7,56%
  mitosis index values: 1,19%

## [Zn+2].c1ccc2c(c1)-c1nc-2nc2[n-]c(nc3nc([n-]c4nc(n1)-c1ccccc1-4)-c1ccccc1-3)c1ccccc21 [ZnPc, Zinc (II) phthalocyanine]
[7]
  singlet oxygen yield ΦΔ: 0,53
